This is an account of results in patent publication US20250236617A1, “BICYCLIC TETRAHYDROTHIAZEPINE DERIVATIVES” (Hoffmann-La Roche Inc., priority 2022, published 2025).

One assay deals with primary human T-cells. The assay is described as follows: T-cell proliferation assay (CellTiter-Glo). Type of assay: cell-based. Particulars: CD3 condition; for EC50: Homo sapiens, T-cell, 120 h, proliferation after 5 days, CellTiter-Glo, read-out: Tcell Proliferation CD3 EC50; for Emax proliferation (% activation): 5 days, 20 μM reference compound A1 = 100%. Background: Cellular ATP, detected with luciferase, serves as a proxy for viable cell number.

For assay [1], the target named is DGKzeta (hDGKzeta(1-928)-N-His) (Homo sapiens (Human), UniProt Q13574). Kind of assay: In vitro DGK inhibition assay, ADP-Glo (in house), DGKzeta. Particulars: DLG liposomes, 50 μM ATP, 2 nM enzyme, 1 hour reaction. The assay is classed as biochemical. (In general: ADP-Glo first removes unused ATP, then detects ADP through luciferase.)
Sequence of DGKzeta (hDGKzeta(1-928)-N-His) (Q13574 whole entry): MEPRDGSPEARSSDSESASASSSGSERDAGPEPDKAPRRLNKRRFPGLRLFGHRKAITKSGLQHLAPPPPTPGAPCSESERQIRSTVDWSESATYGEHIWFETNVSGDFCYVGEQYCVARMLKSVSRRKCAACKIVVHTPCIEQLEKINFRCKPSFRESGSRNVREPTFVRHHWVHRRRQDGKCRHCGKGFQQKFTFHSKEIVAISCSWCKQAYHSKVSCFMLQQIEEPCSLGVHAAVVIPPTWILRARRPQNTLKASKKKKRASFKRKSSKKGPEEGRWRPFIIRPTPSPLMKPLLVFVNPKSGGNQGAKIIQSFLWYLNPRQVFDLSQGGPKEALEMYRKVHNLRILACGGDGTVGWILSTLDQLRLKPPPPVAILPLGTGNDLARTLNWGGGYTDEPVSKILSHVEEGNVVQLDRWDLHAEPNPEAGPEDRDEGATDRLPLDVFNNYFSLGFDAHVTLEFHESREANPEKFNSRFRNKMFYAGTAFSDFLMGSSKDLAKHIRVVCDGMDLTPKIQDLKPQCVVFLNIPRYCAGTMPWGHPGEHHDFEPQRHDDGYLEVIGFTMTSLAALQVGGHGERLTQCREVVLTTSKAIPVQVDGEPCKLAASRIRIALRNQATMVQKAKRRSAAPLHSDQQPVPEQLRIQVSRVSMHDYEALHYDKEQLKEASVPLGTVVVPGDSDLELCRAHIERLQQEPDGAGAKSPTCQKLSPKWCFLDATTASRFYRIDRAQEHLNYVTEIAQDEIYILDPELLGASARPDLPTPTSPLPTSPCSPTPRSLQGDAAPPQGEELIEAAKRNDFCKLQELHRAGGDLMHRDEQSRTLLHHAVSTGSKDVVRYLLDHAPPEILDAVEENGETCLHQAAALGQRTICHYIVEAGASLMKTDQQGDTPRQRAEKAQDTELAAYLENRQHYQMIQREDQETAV
The target of assay [2] is DGKalpha (hDGKalpha(1-735)-N-His) (Homo sapiens (Human), UniProt P23743). The assay is described as follows: In vitro DGK inhibition assay, ADP-Glo (in house), DGKalpha. The assay is classed as biochemical. Particulars: DLG liposomes, 25 μM ATP, 4 nM enzyme, 1 hour reaction.
Sequence of DGKalpha (hDGKalpha(1-735)-N-His) (P23743 whole entry): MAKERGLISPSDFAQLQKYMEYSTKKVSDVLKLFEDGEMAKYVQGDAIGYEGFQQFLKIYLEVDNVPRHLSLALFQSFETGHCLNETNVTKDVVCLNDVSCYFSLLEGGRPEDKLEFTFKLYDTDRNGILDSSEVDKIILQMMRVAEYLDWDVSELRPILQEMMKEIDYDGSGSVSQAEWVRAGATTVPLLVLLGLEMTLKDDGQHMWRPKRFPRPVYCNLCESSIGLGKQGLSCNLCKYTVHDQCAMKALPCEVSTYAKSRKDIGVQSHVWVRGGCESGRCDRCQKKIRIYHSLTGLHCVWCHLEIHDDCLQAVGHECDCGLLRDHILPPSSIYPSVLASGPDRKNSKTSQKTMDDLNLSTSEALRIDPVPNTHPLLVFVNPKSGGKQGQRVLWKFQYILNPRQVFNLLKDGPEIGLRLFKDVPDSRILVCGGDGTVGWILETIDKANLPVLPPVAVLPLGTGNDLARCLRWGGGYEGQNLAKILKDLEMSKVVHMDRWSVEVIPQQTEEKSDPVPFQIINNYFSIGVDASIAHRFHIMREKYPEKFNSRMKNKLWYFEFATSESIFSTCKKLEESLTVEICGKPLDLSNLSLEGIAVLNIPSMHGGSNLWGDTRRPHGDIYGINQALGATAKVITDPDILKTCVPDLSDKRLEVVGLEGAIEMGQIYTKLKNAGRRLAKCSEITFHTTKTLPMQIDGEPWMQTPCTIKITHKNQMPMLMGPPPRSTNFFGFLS

Consider `CC(C)(C)c1cncc(-c2cc3c(cc2F)S(=O)(=O)C[C@H](N)C(=O)N3Cc2ccc(Cl)cc2)c1` [Example 2, (3R)-3-amino-7-(5-tert-butyl-3-pyridyl)-5-[(4-chlorophenyl)methyl]-8-fluoro-1,1-dioxo-2,3-dihydro-1λ6,5-benzothiazepin-4-one], for which the EC50 in the assay on primary human T-cells came to 0.081 µM.

Turning to `CC(C)(C)c1cnnc(-c2cc3c(cc2F)S(=O)(=O)C[C@H](N)C(=O)N3Cc2ccc(Cl)cc2)n1` [Example 11, (3R)-3-amino-7-(5-tert-butyl-1,2,4-triazin-3-yl)-5-[(4-chlorophenyl)methyl]-8-fluoro-1,1-dioxo-2,3-dihydro-1λ6,5-benzothiazepin-4-one], the EC50 in the assay on primary human T-cells was 0.09 µM.

The IC50 is the concentration needed to halve the response being measured. A lower IC50 goes with inhibition by little substance. In the case of `CC(C)(C#N)c1cncc(-c2cc3c(cc2F)S(=O)(=O)C[C@H](N)C(=O)N3Cc2ccc(-c3noc(C(F)(F)F)n3)cc2)c1` [Example 23, 2-[5-[(3R)-3-amino-8-fluoro-1,1,4-triketo-5-[4-[5-(trifluoromethyl)-1,2,4-oxadiazol-3-yl]benzyl]-2,3-dihydro-1λ6,5-benzothiazepin-7-yl]-3-pyridyl]-2-methyl-propionitrile], the figures for the IC50 in assay [1] and in assay [2] were 9.88 µM and 17.2 µM, respectively. Also, the “Emax proliferation (% activation)” value with primary human T-cells came to 204 % activation. Further, in the assay with primary human T-cells, the EC50 was 0.933 µM.

`CC(C)(c1cncc(-c2cc3c(cc2F)S(=O)(=O)C[C@H](N)C(=O)N3Cc2ccc(-c3noc(C(F)(F)F)n3)cc2)c1)S(C)(=O)=O` [Example 25, (3R)-3-amino-8-fluoro-1,1-diketo-7-[5-(1-mesyl-1-methyl-ethyl)-3-pyridyl]-5-[4-[5-(trifluoromethyl)-1,2,4-oxadiazol-3-yl]benzyl]-2,3-dihydro-1λ6,5-benzothiazepin-4-one]: the 50% inhibitory concentration (IC50) in assay [1] was 43.1 µM. The compound also came in with an IC50 in assay [2] of 22.2 µM. Besides, in the assay on primary human T-cells, the “Emax proliferation (% activation)” value worked out at 120 % activation and the EC50 was found to be 0.526 µM.

As for `COc1ccc(-c2ccc(CN3C(=O)[C@@H](N)CS(=O)(=O)c4cc(F)c(-c5cnc(C)c(C)c5)cc43)cc2)cc1` [Example 28, (3R)-3-amino-7-(5,6-dimethyl-3-pyridyl)-8-fluoro-5-[[4-(4-methoxyphenyl)phenyl]methyl]-1,1-dioxo-2,3-dihydro-1λ6,5-benzothiazepin-4-one], the half-inhibitory concentration (IC50) amounted to 9.91 µM in assay [1] and 3.06 µM in assay [2]. Moreover, the “Emax proliferation (% activation)” value with primary human T-cells is on record as 155 % activation. In addition, in the assay on primary human T-cells, the EC50 worked out at 0.081 µM.
